Here are results for three molecules from patent US20150038671A1, “Efficient Synthesis of CN2097 and RC7 and Their Analogs” (priority 2013, published 2015).

This series in a line: Plasma stability (T1/2) in the blood plasma, HPLC analysis. The series is classed as in vitro ADME. As to conditions: time by which the compound was degraded by enzyme to the 50% of original amount. Here is the method: The stability of CN2097 and Szeto CN2097 derivatives in blood was determined as follows.
The detection limit of CN2097 was measured by HPLC analysis. Various concentrations of CN2097 were prepared in PBS and injected in HPLC and monitored at 214 nm. The HPLC analysis of CN2097 using 50 microliter injection and detecting up to 500 micromolar. The lowest level of detection was at 2 micromolar, corresponding to 0.1 nmole or 237.68 ng (FIG. 13).
The T1/2 is the time by which the compound was degraded by enzyme to the 50% of original amount.

Starred links: 1 amine or outer side, 2 acyl side, 3 side chain; linkers in the order of their positions; H or OH if unused. Positions of bridges follow the written chain, without caps; N, C: chain ends. Non-standard residues stand in square brackets, D forms with d. Residues, ends and D or L forms follow the SMILES beside them. Chains are numbered I, II in the order given. Dmt = Cc1cc(O)cc(C)c1C[C@H](N)C(=O)O; X1 = O=C(CCN[*:2])[*:1]

A word on the half-life: it is how long it takes for the measured level to halve. Lower therefore signals fast loss. The molecule `CC(C)[C@H](NC(=O)[C@@H]1CCC(=O)NCCC(=O)NCCCC[C@H](NC(=O)[C@H](CCCCN)NC(=O)[C@H](Cc2ccc(O)cc2)NC(=O)[C@H](CC(N)=O)NC(=O)[C@H](CCCCN)NC(=O)[C@@H](N)CSSC[C@H](N)C(=O)N[C@@H](CCCNC(=N)N)C(=O)N[C@@H](CCCNC(=N)N)C(=O)N[C@@H](CCCNC(=N)N)C(=O)N[C@@H](CCCNC(=N)N)C(=O)N[C@@H](CCCNC(=N)N)C(=O)N[C@@H](CCCNC(=N)N)C(=O)N[C@@H](CCCNC(=N)N)C(N)=O)C(=O)N[C@@H]([C@@H](C)O)C(=O)N1)C(=O)O` [CN2097] (I: H-CKNYKKTEV-OH / II: H-CRRRRRRR-NH2; disulfide I:1-II:1; linker I:6-I:8 via X1) returned a half-life of approximately 48.2 min.

`CC(C)[C@H](NC(=O)[C@@H]1CCC(=O)NCCC(=O)NCCCC[C@H](NC(=O)[C@H](CCCCN)NC(=O)[C@H](Cc2ccc(O)cc2)NC(=O)[C@H](CC(N)=O)NC(=O)[C@H](CCCCN)NC(=O)[C@@H](N)CS)C(=O)N[C@@H]([C@@H](C)O)C(=O)N1)C(=O)O` [CN, Cys-Lys-Asn-Tyr-Lys-[Lys-Thr-Glu(β Ala)]-Val (NH2-CKNYK-[KTE(β-A)]V—OH)] (H-CKNYKKTEV-OH; linker 6-8 via X1) displayed a half-life of approximately 28 min.

`Cc1cc(O)cc(C)c1C[C@H](N)C(=O)N[C@H](CCCNC(=N)N)C(=O)N[C@@H](Cc1ccccc1)C(=O)N[C@@H](CCCCN)C(=O)N[C@@H](CSSC[C@H](N)C(=O)N[C@@H](CCCCN)C(=O)N[C@@H](CC(N)=O)C(=O)N[C@@H](Cc1ccc(O)cc1)C(=O)N[C@@H](CCCCN)C(=O)N[C@H]1CCCCNC(=O)CCNC(=O)CC[C@@H](C(=O)N[C@H](C(=O)O)C(C)C)NC(=O)[C@H]([C@@H](C)O)NC1=O)C(N)=O` [Sezto-CN] (I: H-CKNYKKTEV-OH / II: H-[Dmt][dR]FKC-NH2; disulfide I:1-II:5; linker I:6-I:8 via X1) came in with a half-life of approximately 43.2 min.
